Earlier results on two compounds are cited in patent US5763457A, “Method for treating anxiety” (Eli Lilly and Company, priority 1996, dated 1998).

Structures are written as SMILES.

One data set has as its system M2 -sites. As to conditions: cited from earlier work.
The test system of another data set is M1 -sites. As to conditions: cited from earlier work.
A further data set concerns dopamine receptors. As to conditions: literature; cited from earlier work.
Another data set has as its system 5-HT1A receptor. As to conditions: literature; cited from earlier work.

For the compound `CN1CCN(CC(=O)N2c3ccccc3C(=O)Nc3cccnc32)CC1` [pirenzepine, pirenzepine, [N-methyl-^3 H]], in the data set on M2 -sites, the “interaction with M2 -sites” value is “also interact with M2 -sites”. For the same compound, in the data set on M1 -sites, the selectivity result is on record as “selective for M1 -sites”.

With `O=C1CC2(CCCC2)CC(=O)N1CCCCN1CCN(c2ncccn2)CC1` [Buspirone], the receptor interaction result was “interacts with reasonable potency only at the 5-HT1A and dopamine receptors” in the data set on dopamine receptors; “interacts with reasonable potency only at the 5-HT1A and dopamine receptors” in the data set with 5-HT1A receptor.
